The numbers were not newly measured in patent US10966913B2, “Cosmetic use of spiculisporic acid as a deodorant active agent” (L'OREAL, priority 2014, dated 2021), which cites them from elsewhere.

For this data set the following is noted: room temperature.

Molecules are shown by their SMILES.

As for `CCCCCCCCCCC(C(=O)O)C1(C(=O)O)CCC(=O)O1` (stereo not drawn) [spiculisporic acid, 4,5-dicarboxy-4-pentadecanolide], the solubility in ethanol entry is given as “soluble”, the “solubility in fatty substances” value is listed as “insoluble” and the solubility in water entry is “insoluble”.
